Results from patent EP2790511B1 (Merck Sharp & Dohme Corp., priority 2011, dated 2013).

The compounds below were run against T1, hROMK (hKir1.1) (Homo sapiens, UniProt P48048) (assay: Thallium Flux Assay). Conditions: HEK293 cells stably expressing hROMK (hKir1.1), FLIPR-Tetra; read-out: Thallium Flux IC50.
T1 construct: expressed in transfected cells
T1 sequence (P48048 1-391): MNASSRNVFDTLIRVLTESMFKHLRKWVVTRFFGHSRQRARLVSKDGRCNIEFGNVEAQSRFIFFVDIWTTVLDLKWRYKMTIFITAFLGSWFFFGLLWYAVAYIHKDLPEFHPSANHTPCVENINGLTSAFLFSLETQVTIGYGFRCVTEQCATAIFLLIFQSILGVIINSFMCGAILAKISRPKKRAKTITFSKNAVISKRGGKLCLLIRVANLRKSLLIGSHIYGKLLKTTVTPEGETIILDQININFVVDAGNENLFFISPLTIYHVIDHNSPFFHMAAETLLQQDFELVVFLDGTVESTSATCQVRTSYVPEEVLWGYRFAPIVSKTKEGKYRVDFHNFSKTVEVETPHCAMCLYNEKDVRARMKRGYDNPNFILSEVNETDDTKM
Type: cell-based
Outline: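 HEK293 cells stably expressing hROMK, loaded with FluxOR dye 90 min at ambient temperature, then compound 30 min with 0.3 mM ouabain in probenecid buffer pH 7.4.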

SMILES | IC50 [µM]
Cc1c([C@H]2CN3CCN(C(=O)Cc4ccc(-n5cnnn5)nn4)C[C@H]3CO2)ccc(F)c1C#N [Example 155, 6-fluoro-2-methyl-3-[(3S,9aS)-8-{[6-(1H-tetrazol-1-yl)pyridazin-3-yl]acetyl}octahydropyrazino [2,1-c][1,4]oxazin-3-yl]benzonitrile] | 0.3
Cc1c([C@H]2CN3CCN(C(=O)Cc4cnc(-n5cnnn5)nc4C(F)(F)F)C[C@H]3CO2)ccc(F)c1C#N [Example 158, 6-fluoro-2-methyl-3-[(3S,9aS)-8-{[2-(1H-tetrazol-1-yl)-4-(trifluoromethyl)pyrimidin-5-yl]acetyl}octahydropyrazino[2,1-c][1,4]oxazin-3-yl]benzonitrile] | 0.2
Cc1c([C@@H]2CN3CCN(C(=O)Cc4cnc(-n5cnnn5)nc4C(F)(F)F)C[C@H]3CO2)ccc(F)c1C#N [Example 159, 6-fluoro-2-methyl-3-[(3R,9aS)-8-{[2-(1H-tetrazol-1-yl)-4-(trifluoromethyl)pyrimidin-5-yl]acetyl}octahydropyrazino[2,1-c][1,4]oxazin-3-yl]benzonitrile] | 0.26
Cc1c([C@H]2CN3CCN(C(=O)Cc4cccc(-n5cnnn5)n4)C[C@@H]3CO2)ccc(F)c1C#N [Example 160, 6-fluoro-2-methyl-3-[(3S,9aR)-8-{[6-(1H-tetrazol-1-yl)pyridin-2-yl]acetyl}octahydropyrazino[2,1-c][1,4]oxazin-3-yl]benzonitrile] | 0.39
Cc1c([C@@H]2CN3CCN(C(=O)Cc4cccc(-n5cnnn5)n4)C[C@@H]3CO2)ccc(F)c1C#N [Example 161, 6-fluoro-2-methyl-3-[(3R,9aR)-8-{[6-(1H-tetrazol-1-yl)pyridin-2-yl]acetyl}octahydropyrazino[2,1-c][1,4]oxazin-3-yl]benzonitrile] | 0.35
Cc1c([C@@H]2CN3CCN(C(=O)Cc4ccc(-n5cnnn5)nc4)C[C@H]3CS2)ccc2c1COC2=O [Example 166, 4-methyl-5-[(3R,9aS)-8-{[6-(1H-tetrazol-1-yl)pyridin-3-yl]acetyl}octahydropyrazino[2,1-c][1,4]thiazin-3-yl]-2-benzofuran-1(3H)-one] | 0.38
Cc1c([C@H]2CN3CCN(C(=O)Cc4ccc(-n5cnnn5)nc4)C[C@H]3CS2)ccc2c1COC2=O [Example 167, 4-methyl-5-[(3S,9aS)-8-{[6-(1H-tetrazol-1-yl)pyridin-3-yl]acetyl}octahydropyrazino[2,1-c][1,4]thiazin-3-yl]-2-benzofuran-1(3H)-one] | 0.42
COc1cc(F)c([C@@H]2CN3CCN(C(=O)Cc4cnc(-n5cnnn5)nc4)C[C@H]3CO2)cc1C#N [Example 168, 4-fluoro-2-methoxy-5-[(3R,9aS)-8-{[2-(1H-tetrazol-1-yl)pyrimidin-5-yl]acetyl}octahydropyrazino[2,1-c][1,4]oxazin-3-yl]benzonitrile] | 0.35
Cc1cc([C@H]2CN3CCN(C(=O)Cc4ccc(-n5cnnn5)nc4)C[C@@H]3CO2)c(C)c(C#N)c1F [Example 173, 2-fluoro-3,6-dimethyl-5-[(3S,9aR)-8-{[6-(1H-tetrazol-1-vl)pvridin-3-yl]acetyl}octahydropyrazino[2,1-c][1,4]oxazin-3-yl]benzonitrile] | 0.3
Cc1cc([C@@H]2CN3CCN(C(=O)Cc4ccc(-n5cnnn5)nc4)C[C@@H]3CO2)c(C)c(C#N)c1F [Example 174, 2-fluoro-3,6-dimethyl-5-[(3R,9aR)-8-{[6-(1H-tetrazol-1-vl)pvridin-3-yl]acetyl}octahydropyrazino[2,1-c][1,4]oxazin-3-yl]benzonitrile] | 0.35
O=C(Cc1cnc(-n2cnnn2)nc1)N1CCN2C[C@@H](c3ccc4nonc4c3)OC[C@@H]2C1 [Example 175, (3R,9aS)-3-(2,1,3-benzoxadiazol-5-yl)-8-{[2-(1H-tetrazol-1-vl)pvrimidin-5-yl]acetyl}octahydropyrazino[2,1-c][1,4]oxazine] | 0.53
Cc1c([C@H]2CN3CCN(C(=O)Cc4ccc(-n5cnnn5)nc4)C[C@H]3CO2)ccc2nonc12 [Example 176, (3S,9aS)-3-(4-methyl-2,1,3-benzoxadiazol-5-yl)-8-{[6-(1H-tetrazol-1-yl)pyridin-3-yl]acetyl}octahydropyrazino[2,1-c][1,4]oxazine] | 0.2
Cc1c([C@@H]2CN3CCN(C(=O)Cc4ccc(-n5cnnn5)nc4)C[C@H]3CO2)ccc2nonc12 [Example 177, (3R,9aS)-3-(4-methyl-2,1,3-benzoxadiazol-5-yl)-8-{[6-(1H-tetrazol-1-yl)pyridin-3-yl]acetyl}octahydropyrazino[2,1-c][1,4]oxazine] | 0.25
O=C(Cc1ccc(-n2cnnn2)cn1)N1CCN2C[C@@H](c3ccc4nonc4c3)OC[C@@H]2C1 [Example 178, (3R,9aS)-3-(2,1,3-benzoxadiazol-5-yl)-8-{[5-(1H-tetrazol-1-vl)pvridin-2-yl]acetyl}octahydropyrazino[2,1-c][1,4]oxazine] | 0.35
Cc1c([C@H]2CN3CCN(C(=O)Cc4ccc(-n5cnnn5)nc4)C[C@H]3CS2)ccc(F)c1C#N [Example 185, 6-fluoro-2-methyl-3-[(3S,9aS)-8-{[6-(1H-tetrazol-1-yl)pyridin-3-yl]acetyl}octahydropyrazino[2,1-c][1,4]thiazin-3-yl]benzonitrile] | 0.18
Cc1c([C@H]2CN3CCN(C(=O)Cc4ccc(-n5cnnn5)cn4)C[C@H]3CS2)ccc(F)c1C#N [Example 186] | 0.27
Cc1c([C@H]2CN3CCN(C(=O)C(F)(F)c4cnc(-n5cnnn5)nc4)C[C@H]3CO2)ccc(F)c1C#N [Example 188, 3-((3S,9aS)-8-(2-(2-(1H-tetrazol-1-yl)pyrimidin-5-yl)-2,2-difluoroacetyl)octahydropyrazino[2,1-c][1,4]oxazin-3-yl)-6-fluoro-2-methylbenzonitrile] | 0.35
Cc1c([C@H]2CN3CCN(C(=O)Cc4cnc(-n5cnnn5)nc4)C[C@H]3CN2)ccc(F)c1C#N [Example 189, 3-((3S,9aR)-8-(2-(2-(1H-tetrazol-1-yl)pyrimidin-5-yl)acetyl)octahydro-1H-pyrazino[1,2-a]pyrazin-3-yl)-6-fluoro-2-methylbenzonitrile] | 0.12
Cc1c([C@H]2CN3CCN(C(=O)Cc4ccc(-n5cnnn5)nc4)C[C@H]3CN2)ccc2c1COC2=O [Example 190, 4-methyl-5-[(3S,9aR)-8-{[6-(1H-tetrazol-1-yl)pyridin-3-yl]acetyl}octahydro-2H-pyrazino[1,2-a]pyrazin-3-yl]-2-benzofuran-1(3H)-one] | 0.39
Cc1c([C@H]2CN3CCN(C(=O)Cc4ccc(-n5cnnn5)cn4)C[C@H]3CN2)ccc(F)c1C#N [Example 191, 6-fluoro-2-methyl-3-[(3S,9aR)-8-{[5-(1H-tetrazol-1-yl)pyridin-2-yl]acetyl}octahydro-2H-pyrazino[1,2-a]pyrazin-3-yl]benzonitrile] | 0.12

Same assay, conditions: Thallium Flux IC50

SMILES | IC50 [µM]
Cc1c([C@@H]2CN3CCN(C(=O)Cc4ncc(-n5cnnn5)cc4Cl)C[C@@H]3CO2)ccc(F)c1C#N [Example 154, 3-[(3R,9aR)-8-{[3-chloro-5-(1H-tetrazol-1-yl)pyridin-2-yl]acetyl}octahydropyrazino[2,1-c][1,4]oxazin-3-yl]-6-fluoro-2-methylbenzonitrile] | 0.2
Cc1c([C@@H]2CN3CCN(C(=O)Cc4ccc(-n5cnnn5)nn4)C[C@@H]3CO2)ccc(F)c1C#N [Example 156, 6-fluoro-2-methyl-3-[(3R,9aR)-8-{[6-(1H-tetrazol-1-yl)pyridazin-3-yl]acetyl}octahydropyrazino [2,1-c][1,4]oxazin-3-yl]benzonitrile] | 0.21
Cc1c([C@@H]2CN3CCN(C(=O)Cc4ccc(-n5nnnc5C)cn4)C[C@H]3CO2)ccc(F)c1C#N [Example 162, 6-fluoro-2-methyl-3-[(3R,9aS)-8-{[5-(5-methyl-1H-tetrazol-1-vl)pvridin-2-yl]acetyl}octahydropyrazino[2,1-c][1,4]oxazin-3-yl]benzonitrile] | 0.17
O=C(Cc1ccc(-n2cnnn2)nc1)N1CCN2C[C@@H](c3ccc4nonc4c3)OC[C@@H]2C1 [Example 179, (3R,9aS)-3-(2,1,3-benzoxadiazol-5-yl)-8-{[6-(1H-tetrazol-1-vl)pvridin-3-yl]acetyl}octahydropyrazino[2,1-c][1,4]oxazine] | 0.18
O=C(Cc1ccc(-n2cnnn2)nc1)N1CCN2C[C@H](c3ccc4nonc4c3)OC[C@@H]2C1 [Example 180, (3S,9aS)-3-(2,1,3-benzoxadiazol-5-yl)-8-{[6-(1H-tetrazol-1-vl)pvridin-3-yl]acetyl}octahydropyrazino[2,1-c][1,4]oxazine] | 0.59
N#Cc1c(F)ccc([C@H]2CN3CCN(C(=O)Cc4ccc(-n5cnnn5)nc4)C[C@H]3CO2)c1C1CC1 [Example 181, 2-cyclopropyl-6-fluoro-3-[(3S,9aS)-8-{[6-(1H-tetrazol-1-vl)pvridin-3-yl]acetyl}octahydropyrazino[2,1-c][1,4]oxazin-3-yl]benzonitrile] | 0.38
Cc1c([C@H]2CN3CCN(C(=O)Cc4ccc(-n5cnnn5)nc4)C[C@H]3CS2(=O)=O)ccc(F)c1C#N [Example 187, 3-[(3S,9aS)-2,2-dioxido-8-{[6-(1H-tetrazol-1-yl)pyridin-3-yl]acetyl}octahydropyrazino[2,1-c][1,4]thiazin-3-yl]-6-fluoro-2-methylbenzonitrile] | 0.28
